Source: patent US20080176905A1, “Polymorphic forms of rosiglitazone hydrobromide and processes for preparation thereof” (priority 2007, published 2008)
Structures can show the parent of a compound that is named as a salt.

Columns and labels:
[1] = Weight loss on drying measured by TGA; assay type: physicochemical; conditions: for Weight loss, as measured by TGA: general statement in description, hydrobromide
Description: TGA analysis was preformed using Mettler 3M with Mettler TG 50 thermobalance. The weight of the samples was about 10 mg; the samples were scanned at a rate of 10° C./min from 25° C. to 200 or 250° C. The oven was constantly purged with nitrogen gas at a flow rate of 40 ml/min. Standard alumina crucibles covered by lids with 1 hole were used.

[2] = Water content by Karl Fisher (KF) analysis; assay type: physicochemical; conditions: for Water content, as measured by KF: general statement in description, hydrobromide
Description: As used herein, the term “water content” refers to the content of water based upon the Loss on Drying method (the “LOD” method) as described in UPS 29-NF 24, official Aug. 1, 2006, Physical Test and Determinations, <731> LOSS ON DRYING or in Pharmacopeial Forum, Vol. 24, No. 1, p. 5438 (January-February 1998), the Karl Fisher assay for determining water content or thermogravimetric analysis (TGA). All percentages herein are by weight unless otherwise indicated. As used herein, the term “monohydrate” when used in reference to Rosiglitazone hydrobromide describes Rosiglitazone hydrobromide having water content of between about 3.9-4.1% w/w. As used herein, the term “hemi-hydrate” when used in reference to Rosiglitazone hydrobromide describes Rosiglitazone hydrobromide having a water content of about 1.8-2.1% w/w. As used herein, the term “quarter-hydrate” when used in reference to Rosiglitazone hydrobromide describes Rosiglitazone hydrobromide having a water content of about 0.7-1.0% w/w.
Water content was determined by Karl Fisher analysis using Mettler Toledo DL 38 Karl Fisher Titrator.

[3] = relative humidity 100%
[4] = Polymorphic stability of Form I in compacted tablet with excipients; assay type: physicochemical; conditions: compacted with lactose monohydrate, sucrose and avicel
Description: Solid pharmaceutical compositions of Form I and the following excipients were compacted into a dosage form like a tablet: lactose monohydrate, sucrose and avicel. The polymorphic stability of Rosiglitazone form I in such tablet was examined and determined to be stable.

[5] = Crystalline stability of Form I under pressure, grinding and heating (XRD of resulting material)
[6] = listed as Rosiglitazone hydrobromide Form II
[7] = 0 % RH, room temperature, 7 days
[8] = 100 % RH, room temperature, 7 days
[9] = listed as Rosiglitazone hydrobromide Form I

| Weight loss, as measured by TGA [1, 6] | Water content, as measured by KF [2, 6] | Stability under extreme relative humidity conditions [3] | Polymorphic stability in tablet [4] | Stability under extreme heating conditions ([5]; 80° C. for 30 minutes) | Stability under high pressure and grinding conditions ([5]; high pressure and grinding) | TGA (weight loss on drying) [1, 7] | TGA (weight loss on drying) [1, 8] | TGA (weight loss on drying) ([1]; As is) | Weight loss, as measured by TGA [1, 9] | KF (water content) [2, 7] | KF (water content) [2, 8] | KF (water content) ([2]; As is) | Water content, as measured by KF [2, 9] | Water content ([2]; relative humidity of about 0%, corresponds to a quarter-hydrate) | Water content ([2]; relative humidity of about 50%, corresponds to a hemihydrate) | Hydrate obtained on maintaining at relative humidity ([2]; relative humidity of about 100%) | Structure (SMILES) |
| --- | --- | --- | --- | --- | --- | --- | --- | --- | --- | --- | --- | --- | --- | --- | --- | --- | --- |
| about 3.9 % by weight | about 4.1 % by weight |  |  |  |  |  |  |  |  |  |  |  |  |  |  |  | CN(CCOc1ccc(CC2SC(=O)NC2=O)cc1)c1ccccn1 (centres unmarked) [Form II, Rosiglitazone hydrobromide] |
|  |  | stable | stable | stable | stable | 0.7 | 3.9 | 4.1 | 0.7-4.1 % by weight | 1% | 4.1% | 4.1% | 1.0-4.1 % by weight | about 1% | about 2% | a monohydrate is obtained | CN(CCOc1ccc(CC2SC(=O)NC2=O)cc1)c1ccccn1 (centres unmarked) [Form I, Rosiglitazone hydrobromide] |
